Data from patent publication US10681909B2, “Herbicidal triazoles” (FMC Corporation, priority 2014, dated 2020).

How the values were obtained:
morningglory = assay: Test A preemergence; format: in vivo, Ipomoea spp.; conditions: Ipomoea, pre-emergence, 240 h, 0 to 100 scale (0 no effect, 100 complete control), read-out: Plant response rating, Morningglory; for pest or weed control at 125 g/ha: 125 g ai/ha; for pest or weed control at 500 g/ha: 500 g ai/ha, approx. 10 d
Method in brief: (§1)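 Pre- and postemergence spray tests in a loam soil–sand mixture: seeded soil received a directed spray, while established seedlings 2–10 cm high at the one- to two-leaf stage were treated over the top. Compounds were carried in non-phytotoxic solvent with surfactant.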

corn = assay: Test A preemergence; format: in vivo, Zea mays; conditions: Zea mays, pre-emergence, 240 h, 0 to 100 scale (0 no effect, 100 complete control); for Corn plant response rating (crop injury, 0 = no effect, 100 = complete kill) at 125 g/ha: 125 g ai/ha; for Corn plant response rating (crop injury, 0 = no effect, 100 = complete kill) at 500 g/ha: 500 g ai/ha, approx. 10 d
Method in brief: as §1

crabgrass, large = assay: Test C preemergence; format: in vivo, Digitaria sanguinalis; conditions: for Plant response rating (scale of 0 to 100 where 0 is no effect and 100 is complete control): Crabgrass, Large, preemergence; for Crabgrass, Large plant response rating (0 to 100): Preemergence, visual rating after 13 to 15 d
Source text: (§2) Seeds of plant species selected from blackgrass (Alopecurus myosuroides), ryegrass, Italian (Italian ryegrass, Lolium multiflorum), wheat (winter wheat, Triticum aestivum), galium (catchweed bedstraw, Galium aparine), corn (Zea mays), crabgrass, large (large crabgrass, Digitaria sanguinalis), foxtail, giant, (giant foxtail, Setaria faberii), johnsongrass (Sorghum halepense), lambsquarters (Chenopodium album), morningglory (Ipomoea coccinea), nutsedge, yellow (yellow nutsedge, Cyperus esculentus), pigweed (Amaranthus retroflexus), ragweed (common ragweed, Ambrosia elatior), soybean (Glycine max), barnyardgrass (Echinochloa crus-galli), oilseed rape (Brassica napus), waterhemp (common waterhemp, Amaranthus rudis), and velvetleaf (Abutilon theophrasti) were planted into a blend of loam soil and sand and treated preemergence with test chemicals formulated in a non-phytotoxic solvent mixture which included a surfactant. At the same time, plants selected from these crop and weed species and also chickweed (common chickweed, Stellaria media), oat, wild (wild oat, Avena fatua), and kochia (Kochia scoparia), were planted in pots containing Sunshine Redi-Earth® planting medium comprising spaghnum peat moss, vermiculite, starter nutrients and dolomitic limestone and treated with postemergence applications of test chemicals formulated in the same manner. Plants ranged in height from 2 to 18 cm (1- to 4-leaf stage) for postemergence treatments. […] A dash (-) response means no test result.

nutsedge, yellow = assay: Test C preemergence; format: in vivo, Cyperus esculentus; conditions: for Plant response rating (scale of 0 to 100 where 0 is no effect and 100 is complete control): Nutsedge, Yellow, preemergence; for Nutsedge, Yellow plant response rating (0 to 100): Preemergence, visual rating after 13 to 15 d
Source text: as §2

ragweed = assay: Test C preemergence; format: in vivo, Ambrosia elatior; conditions: for Ragweed plant response rating (0 to 100): Preemergence, visual rating after 13 to 15 d; for Plant response rating (scale of 0 to 100 where 0 is no effect and 100 is complete control): Ragweed, preemergence
Source text: as §2

ryegrass, Italian = assay: Test A preemergence; format: in vivo, Lolium multiflorum; conditions: 0 to 100 scale (0 no effect, 100 complete control)
Source text: Seeds of plant species selected from barnyardgrass (Echinochloa crus-galli), crabgrass, large (large crabgrass, Digitaria sanguinalis), kochia (Kochia scoparia), ragweed (common ragweed, Ambrosia elatior), foxtail, giant (giant foxtail, Setaria faberii), morningglory (Ipomoea spp.), pigweed (Amaranthus retroflexus), velvetleaf (Abutilon theophrasti), ryegrass, Italian (Italian ryegrass, Lolium multiflorum), wheat (Triticum aestivum), and corn (Zea mays) were planted into a blend of loam soil and sand and treated preemergence with a directed soil spray using test chemicals formulated in a non-phytotoxic solvent mixture which included a surfactant.
At the same time, plants selected from these crop and weed species and also blackgrass (Alopecurus myosuroides), and galium (catchweed bedstraw, Galium aparine), were planted in pots containing the same blend of loam soil and sand and treated with postemergence applications of test chemicals formulated in the same manner. Plants ranged in height from 2 to 10 cm and were in the one- to two-leaf stage for the postemergence treatment. Treated plants and untreated controls were maintained in a greenhouse for approximately 10 d, after which time all treated plants were compared to untreated controls and visually evaluated for injury. Plant response ratings, summarized in Table A, are based on a 0 to 100 scale where 0 is no effect and 100 is complete control. A dash (-) response means no test result.

Cn1nc(-c2ccc(F)cc2)nc1Oc1cccc(C(F)(F)F)c1 [Compound 5, 3-(4-fluorophenyl)-1-methyl-5-[3-(trifluoromethyl)phenoxy]-1H-1,2,4-triazole]
pest or weed control at 125 g/ha (morningglory): 0%
pest or weed control at 500 g/ha (morningglory): 0%
Corn plant response rating (crop injury, 0 = no effect, 100 = complete kill) at 125 g/ha (corn): 0%
Corn plant response rating (crop injury, 0 = no effect, 100 = complete kill) at 500 g/ha (corn): 0%

CCCc1nc(-c2ccc(F)cc2)nn1Cc1ccnc(C(F)(F)F)c1 [Compound 6, 4-[[3-(4-fluorophenyl)-5-propyl-1H-1,2,4-triazol-1-yl]methyl]-2-(trifluoromethyl)pyridine]
Plant response rating (scale of 0 to 100 where 0 is no effect and 100 is complete control) (crabgrass, large; 125 g ai/ha): 100
Plant response rating (scale of 0 to 100 where 0 is no effect and 100 is complete control) (crabgrass, large; 250 g ai/ha): 100
Crabgrass, Large plant response rating (0 to 100) (crabgrass, large; 31 g ai/ha): 100
Crabgrass, Large plant response rating (0 to 100) (crabgrass, large; 62 g ai/ha): 100
Plant response rating (scale of 0 to 100 where 0 is no effect and 100 is complete control) (nutsedge, yellow; 125 g ai/ha): 35
Plant response rating (scale of 0 to 100 where 0 is no effect and 100 is complete control) (nutsedge, yellow; 250 g ai/ha): 50
Nutsedge, Yellow plant response rating (0 to 100) (nutsedge, yellow; 31 g ai/ha): 25
Nutsedge, Yellow plant response rating (0 to 100) (nutsedge, yellow; 62 g ai/ha): 30
pest or weed control at 125 g/ha (morningglory): 50%
pest or weed control at 500 g/ha (morningglory): 100%
Ragweed plant response rating (0 to 100) (ragweed; 31 g ai/ha): 20
Ragweed plant response rating (0 to 100) (ragweed; 62 g ai/ha): 20
Plant response rating (scale of 0 to 100 where 0 is no effect and 100 is complete control) (ragweed; 125 g ai/ha): 55
Plant response rating (scale of 0 to 100 where 0 is no effect and 100 is complete control) (ragweed; 250 g ai/ha): 80
Corn plant response rating (crop injury, 0 = no effect, 100 = complete kill) at 125 g/ha (corn): 20%
Corn plant response rating (crop injury, 0 = no effect, 100 = complete kill) at 500 g/ha (corn): 30%

COc1nc(-c2ccc(F)cc2)nn1Cc1ccnc(C(F)(F)F)c1 [Compound 9, 4-[[3-(4-fluorophenyl)-5-methoxy-1H-1,2,4-triazol-1-yl]methyl]-2-(trifluoromethyl)pyridine]
Plant response rating (scale of 0 to 100 where 0 is no effect and 100 is complete control) (crabgrass, large; 125 g ai/ha): 100
Plant response rating (scale of 0 to 100 where 0 is no effect and 100 is complete control) (crabgrass, large; 250 g ai/ha): 100
Crabgrass, Large plant response rating (0 to 100) (crabgrass, large; 31 g ai/ha): 95
Crabgrass, Large plant response rating (0 to 100) (crabgrass, large; 62 g ai/ha): 100
Plant response rating (scale of 0 to 100 where 0 is no effect and 100 is complete control) (nutsedge, yellow; 125 g ai/ha): 35
Plant response rating (scale of 0 to 100 where 0 is no effect and 100 is complete control) (nutsedge, yellow; 250 g ai/ha): 50
Nutsedge, Yellow plant response rating (0 to 100) (nutsedge, yellow; 31 g ai/ha): 10
Nutsedge, Yellow plant response rating (0 to 100) (nutsedge, yellow; 62 g ai/ha): 5
pest or weed control at 125 g/ha (morningglory): 10%
pest or weed control at 500 g/ha (morningglory): 90%
Ragweed plant response rating (0 to 100) (ragweed; 31 g ai/ha): 25
Ragweed plant response rating (0 to 100) (ragweed; 62 g ai/ha): 60
Plant response rating (scale of 0 to 100 where 0 is no effect and 100 is complete control) (ragweed; 125 g ai/ha): 60
Plant response rating (scale of 0 to 100 where 0 is no effect and 100 is complete control) (ragweed; 250 g ai/ha): 85
Corn plant response rating (crop injury, 0 = no effect, 100 = complete kill) at 125 g/ha (corn): 0%
Corn plant response rating (crop injury, 0 = no effect, 100 = complete kill) at 500 g/ha (corn): 40%

Cn1nc(-c2ccc(F)cc2)nc1C(O)c1ccnc(C(F)(F)F)c1 (stereo not drawn) [Compound 14, α-[3-(4-fluorophenyl)-1-methyl-1H-1,2,4-triazol-5-yl]-2-(trifluoromethyl)-4-pyridinemethanol]
pest or weed control at 125 g/ha (morningglory): 0%
pest or weed control at 500 g/ha (morningglory): 0%
Corn plant response rating (crop injury, 0 = no effect, 100 = complete kill) at 125 g/ha (corn): 0%
Corn plant response rating (crop injury, 0 = no effect, 100 = complete kill) at 500 g/ha (corn): 0%

CCn1nc(-c2ccc(F)cc2)nc1C(O)c1ccnc(C(F)(F)F)c1 (stereo not drawn) [Compound 15, α-[1-Ethyl-3-(4-fluorophenyl)-1H-1,2,4-triazol-5-yl]-2-(trifluoromethyl)-4-pyridinemethanol]
pest or weed control at 125 g/ha (morningglory): 0%
pest or weed control at 500 g/ha (morningglory): 0%
Corn plant response rating (crop injury, 0 = no effect, 100 = complete kill) at 125 g/ha (corn): 0%
Corn plant response rating (crop injury, 0 = no effect, 100 = complete kill) at 500 g/ha (corn): 0%

CCCn1nc(-c2ccc(F)cc2)nc1Cc1ccnc(C(F)(F)F)c1 [Compound 17, 4-[[3-(4-fluorophenyl)-1-propyl-1H-1,2,4-triazol-5-yl]methyl]-2-(trifluoromethyl)pyridine]
pest or weed control at 125 g/ha (morningglory): 70%
pest or weed control at 500 g/ha (morningglory): 90%
Corn plant response rating (crop injury, 0 = no effect, 100 = complete kill) at 125 g/ha (corn): 30%
Corn plant response rating (crop injury, 0 = no effect, 100 = complete kill) at 500 g/ha (corn): 40%

CCn1nc(-c2ccc(F)cc2)nc1C(=O)c1ccnc(C(F)(F)F)c1 [Compound 19, [1-ethyl-3-(4-fluorophenyl)-1H-1,2,4-triazol-5-yl][2-(trifluoromethyl)-4-pyridinyl]methanone]
pest or weed control at 125 g/ha (morningglory): 0%
pest or weed control at 500 g/ha (morningglory): 0%
Corn plant response rating (crop injury, 0 = no effect, 100 = complete kill) at 125 g/ha (corn): 0%
Corn plant response rating (crop injury, 0 = no effect, 100 = complete kill) at 500 g/ha (corn): 0%

COc1nc(-c2ccc(C(F)(F)F)cc2)nn1Cc1ccnc(C(F)(F)F)c1 [Compound 25]
Plant response rating, Ryegrass, Italian (ryegrass, Italian; 31 g ai/ha): 0
Plant response rating, Ryegrass, Italian (ryegrass, Italian; 125 g ai/ha): 50

CCOc1nc(-c2ccc(Cl)cc2)nn1Cc1ccnc(C(F)(F)F)c1 [Compound 26]
Plant response rating, Ryegrass, Italian (ryegrass, Italian; 31 g ai/ha): 40
Plant response rating, Ryegrass, Italian (ryegrass, Italian; 125 g ai/ha): 100

CS(=O)(=O)c1nc(-c2ccc(F)cc2)nn1Cc1ccnc(C(F)(F)F)c1 [Compound 29, 4-[[3-(4-fluorophenyl)-5-(methylsulfonyl)-1H-1,2,4-triazole-1-yl]methyl]-2-(trifluoromethyl)pyridine]
pest or weed control at 125 g/ha (morningglory): 0%
pest or weed control at 500 g/ha (morningglory): 0%
Corn plant response rating (crop injury, 0 = no effect, 100 = complete kill) at 125 g/ha (corn): 0%
Corn plant response rating (crop injury, 0 = no effect, 100 = complete kill) at 500 g/ha (corn): 0%

COc1nc(-c2ccccc2)nn1Cc1ccnc(C(F)(F)F)c1 [Compound 32]
Plant response rating (scale of 0 to 100 where 0 is no effect and 100 is complete control) (crabgrass, large; 125 g ai/ha): 100
Plant response rating (scale of 0 to 100 where 0 is no effect and 100 is complete control) (crabgrass, large; 250 g ai/ha): 98
Crabgrass, Large plant response rating (0 to 100) (crabgrass, large; 31 g ai/ha): 65
Crabgrass, Large plant response rating (0 to 100) (crabgrass, large; 62 g ai/ha): 90
Plant response rating (scale of 0 to 100 where 0 is no effect and 100 is complete control) (nutsedge, yellow; 125 g ai/ha): 5
Plant response rating (scale of 0 to 100 where 0 is no effect and 100 is complete control) (nutsedge, yellow; 250 g ai/ha): 20
Nutsedge, Yellow plant response rating (0 to 100) (nutsedge, yellow; 31 g ai/ha): 0
Nutsedge, Yellow plant response rating (0 to 100) (nutsedge, yellow; 62 g ai/ha): 0
Ragweed plant response rating (0 to 100) (ragweed; 31 g ai/ha): 0
Ragweed plant response rating (0 to 100) (ragweed; 62 g ai/ha): 5
Plant response rating (scale of 0 to 100 where 0 is no effect and 100 is complete control) (ragweed; 125 g ai/ha): 10
Plant response rating (scale of 0 to 100 where 0 is no effect and 100 is complete control) (ragweed; 250 g ai/ha): 65
Plant response rating, Ryegrass, Italian (ryegrass, Italian; 125 g ai/ha): 40
Plant response rating, Ryegrass, Italian (ryegrass, Italian; 500 g ai/ha): 60

CCCOc1nc(-c2ccccc2)nn1Cc1ccnc(C(F)(F)F)c1 [Compound 33]
Plant response rating, Ryegrass, Italian (ryegrass, Italian; 125 g ai/ha): 30
Plant response rating, Ryegrass, Italian (ryegrass, Italian; 500 g ai/ha): 60
